The series is described as follows: xn = mol fraction of the nth substance listed. Conditions: Fluid (supercritical or subcritical phases), Taylor-Aris chromatographic method, x1 = 0.

As to `Cc1cc(C)cc(C)c1` [1,3,5-trimethylbenzene] + O=C=O, the binary diffusion coefficient was determined as 1.04e-08 m2/s (313.16 K, 15000 kPa); 9.15e-09 m2/s (313.16 K, 20000 kPa); 8.21e-09 m2/s (313.16 K, 25000 kPa); 7.78e-09 m2/s (313.16 K, 30000 kPa); 7.46e-09 m2/s (313.16 K, 35000 kPa); 1.19e-08 m2/s (323.16 K, 15000 kPa). In addition, the binary diffusion coefficient was determined as 1.11e-08 m2/s (323.16 K, 20000 kPa); 9.33e-09 m2/s (323.16 K, 25000 kPa); 9.23e-09 m2/s (323.16 K, 30000 kPa); 8.6e-09 m2/s (323.16 K, 35000 kPa); 1.42e-08 m2/s (333.16 K, 15000 kPa); 1.23e-08 m2/s (333.16 K, 20000 kPa). For the same molecule, the binary diffusion coefficient (333.16 K, 25000 kPa) amounted to 1.15e-08 m2/s; the binary diffusion coefficient (333.16 K, 30000 kPa) came to 1.04e-08 m2/s; the binary diffusion coefficient (333.16 K, 35000 kPa) is 9.89e-09 m2/s.
On to `Nc1ccccc1` [aniline] + O=C=O, for which the binary diffusion coefficient runs as follows: (313.16 K, 15000 kPa) 1.02e-08 m2/s; (313.16 K, 20000 kPa) 9.75e-09 m2/s; (313.16 K, 25000 kPa) 9.06e-09 m2/s; (313.16 K, 30000 kPa) 8.43e-09 m2/s; (313.16 K, 35000 kPa) 7.76e-09 m2/s; (323.16 K, 15000 kPa) 1.18e-08 m2/s. For the same molecule, the binary diffusion coefficient was 1.08e-08 m2/s (323.16 K, 20000 kPa); 9.66e-09 m2/s (323.16 K, 25000 kPa); 9.1e-09 m2/s (323.16 K, 30000 kPa); 8.7e-09 m2/s (323.16 K, 35000 kPa); 1.33e-08 m2/s (333.16 K, 15000 kPa); 1.19e-08 m2/s (333.16 K, 20000 kPa). The binary diffusion coefficient (333.16 K, 25000 kPa) was determined as 1.1e-08 m2/s; the binary diffusion coefficient (333.16 K, 30000 kPa) stood at 1.02e-08 m2/s; the binary diffusion coefficient (333.16 K, 35000 kPa) turned out to be 9.47e-09 m2/s.
With `C=Cc1ccccc1` [styrene] + O=C=O, the binary diffusion coefficient came to 1.19e-08 m2/s (313.16 K, 15000 kPa); 1.08e-08 m2/s (313.16 K, 20000 kPa); 9.58e-09 m2/s (313.16 K, 25000 kPa); 8.74e-09 m2/s (313.16 K, 30000 kPa); 8.27e-09 m2/s (313.16 K, 35000 kPa); 1.32e-08 m2/s (323.16 K, 15000 kPa). Moreover, the binary diffusion coefficient was 1.12e-08 m2/s (323.16 K, 20000 kPa); 1.06e-08 m2/s (323.16 K, 25000 kPa); 9.2e-09 m2/s (323.16 K, 30000 kPa); 8.77e-09 m2/s (323.16 K, 35000 kPa); 1.55e-08 m2/s (333.16 K, 15000 kPa); 1.41e-08 m2/s (333.16 K, 20000 kPa). In addition, the binary diffusion coefficient (333.16 K, 25000 kPa) turned out to be 1.22e-08 m2/s; the binary diffusion coefficient (333.16 K, 30000 kPa) was 1.09e-08 m2/s; the binary diffusion coefficient (333.16 K, 35000 kPa) was 1.02e-08 m2/s.

The values are drawn from the NIST ThermoML archive (doi:10.1021/je7000254).
